# Results from patent US20070149401A1, “METHODS AND COMPOSITION FOR GROWTH ENGINEERING AND DISEASE CONTROL” (Syngenta Crop Protection, Inc., priority 2005, published 2007).
# Tests used:
# Barley [1] = assay: Barley lodging control; type: in vivo
# Procedure: (§1) Barley seeds were treated with paclobutrazol (alone) and with paclobutrazol in combination with gibberrelic acid at varying rates. The resulting plants were then additionally treated with foliar applications of trinexapac plant growth regulator (applied as Palisade™ 128 and Palisade™ 150) at the Feekes 6 timing. Emergence and percent lodging were measured against the check. The results are found in Tables BB and CC.
# Barley [2] = assay: Barley emergence after PGR seed treatments; type: in vivo
# Procedure: as §1
# Colorado Potato Beetle = assay: Insect control: Colorado Potato Beetle count on plants from treated seed; type: in vivo
# From the text: Presence of Colorado Potato Beetle was studied in plants resulting from the seed treatments with paclobutrazol.
# vine ripe tomatoes = assay: Yields of vine ripe tomatoes; type: in vivo, tomato
# From the text: Table O also illustrates the safening effect of the PGR on the seed to later foliar application of the plant activator. Without the PBZ on the seed, the yield decreases from 119 to 96.
# [3] = test system: Variety Florida 47 tomatoe; assay: Water use efficiency: cumulative water used by tomato transplants; type: in vivo; conditions: for Cumulative Water Used (ml/6 plants), projected through 6th week: Table H
# Procedure: Variety Florida 47 tomatoe seeds were treated and the plants tested with respect to the cumulative amount of water used to sustain the plants from seeding through growth.
# Using the data obtained from these trials, and empirical calculations, a tomato transplant business could save approximately 700 gallons of water while producing 27,000 transplants.
# 20 tables/greenhouse×28 flats/table×48 plants/flat×0.6 liters/6 plants×gal/3.75 1=710 gallons of water.
# Xanthamonas spp. = assay: Xanthamonas infection of tomato transplants; type: in vivo; conditions: versus fungicidal mixture alone
# From the text: Disease resistance in the post-emergent plant has also been shown through use of plant growth regulators as a seed treatment. A set of tomato transplants from seed treated with paclobutrazol and a fungicidal mixture of fludioxonil and mefenoxam was inoculated with Xanthamonas spp. 18 days after transplanting. […] The antibacterial activity of the PGR-treated plants is significant at several rates of application.
structure (smiles),measurement,setting,value
O=C1CC(C(=O)O)CC(=O)C1=C(O)C1CC1 (stereo not shown) [Trinexapac [150] Feekes 6],% Lodging,Barley [1]; 7 Jun,0.2%
same,% Lodging,Barley [1]; 11 Jun,0%
same,% Lodging,Barley [1]; 18 Jun,0%
same,% Lodging,Barley [1]; 19 May,11.7%
O=C1CC(C(=O)O)CC(=O)C1=C(O)C1CC1 (stereo not shown) [Trinexapac [128] Feekes 6],% Lodging,Barley [1]; 7 Jun,7.5%
same,% Lodging,"Barley [1]; 7 Jun, listed as Trinexapac [128] Feekes 6 + 7 days",79.2%
same,% Lodging,Barley [1]; 11 Jun,0.5%
same,% Lodging,"Barley [1]; 11 Jun, listed as Trinexapac [128] Feekes 6 + 7 days",17.2%
same,% Lodging,Barley [1]; 18 Jun,0%
same,% Lodging,"Barley [1]; 18 Jun, listed as Trinexapac [128] Feekes 6 + 7 days",1.7%
same,% Lodging,Barley [1]; 19 May,8.3%
same,% Lodging,"Barley [1]; 19 May, listed as Trinexapac [128] Feekes 6 + 7 days",7.5%
"CC(C)(C)[C@@H](O)[C@@H](Cc1ccc(Cl)cc1)n1cncn1 (racemic) [PBZ, paclobutrazol]","Emergence, 8 Days after planting (no. emerged-6 ft row)",Barley [2]; listed as PBZ rate (1),68.2
same,"Emergence, 8 Days after planting (no. emerged-6 ft row)",Barley [2]; listed as PBZ rate (3),38.7
same,"Emergence, 8 Days after planting (no. emerged-6 ft row)",Barley [2]; listed as PBZ ratge (2),36.3
same,"Emergence, 14 Days after planting (no. emerged-6 ft row)",Barley [2]; listed as PBZ rate (1),113.2
same,"Emergence, 14 Days after planting (no. emerged-6 ft row)",Barley [2]; listed as PBZ rate (3),114.5
same,"Emergence, 14 Days after planting (no. emerged-6 ft row)",Barley [2]; listed as PBZ ratge (2),106.3
same,% Lodging,"Barley [1]; 7 Jun, listed as PBZ rate (1)",85.8%
same,% Lodging,"Barley [1]; 7 Jun, listed as PBZ rate (3)",72.5%
same,% Lodging,"Barley [1]; 7 Jun, listed as PBZ ratge (2)",68.3%
same,% Lodging,"Barley [1]; 11 Jun, listed as PBZ rate (1)",29.2%
same,% Lodging,"Barley [1]; 11 Jun, listed as PBZ rate (3)",9.2%
same,% Lodging,"Barley [1]; 11 Jun, listed as PBZ ratge (2)",16.8%
same,% Lodging,"Barley [1]; 18 Jun, listed as PBZ rate (1)",31.7%
same,% Lodging,"Barley [1]; 18 Jun, listed as PBZ rate (3)",20%
same,% Lodging,"Barley [1]; 18 Jun, listed as PBZ ratge (2)",23.3%
same,% Lodging,Barley [1]; 19 May,0%
same,No. Potato Beetle Adults/plant,Colorado Potato Beetle,0.8
same,yield (in words),"vine ripe tomatoes; PBZ on the seed, later foliar plant activator",substantially higher
same,"Cumulative Water Used (ml/6 plants), projected through 6th week",[3]; 1-Aug,883 ml/6 plants
same,"Cumulative Water Used (ml/6 plants), projected through 6th week",[3]; 21-Jul,113 ml/6 plants
same,"Cumulative Water Used (ml/6 plants), projected through 6th week",[3]; 22-Jul,172 ml/6 plants
same,"Cumulative Water Used (ml/6 plants), projected through 6th week",[3]; 23-Jul,259 ml/6 plants
same,"Cumulative Water Used (ml/6 plants), projected through 6th week",[3]; 25-Jul,339 ml/6 plants
same,"Cumulative Water Used (ml/6 plants), projected through 6th week",[3]; 26-Jul,423.17 ml/6 plants
same,"Cumulative Water Used (ml/6 plants), projected through 6th week",[3]; 27-Jul,506 ml/6 plants
same,"Cumulative Water Used (ml/6 plants), projected through 6th week",[3]; 28-Jul,575 ml/6 plants
same,"Cumulative Water Used (ml/6 plants), projected through 6th week",[3]; 29-Jul,649 ml/6 plants
same,"Cumulative Water Used (ml/6 plants), projected through 6th week",[3]; 31-Jul,790 ml/6 plants
same,water use (in words),[3]; during transplant production,decreased water use
same,resistance against xanthamonas infection (in words),Xanthamonas spp.,greater resistance
"CSC(=O)c1cccc2nnsc12 [ASM, acibenzolar-S-methyl]",Cumulative Tomato Yields No. Fruit/Plot (12 plants),"vine ripe tomatoes; 29-Aug, averages of 5 programs (ASM) and 3 programs (ASM + PBZ), PBZ on seed, ASM foliar",96
